Experimental data as given in patent publication US8129366B2, “VLA-4 inhibitory drug” (Daiichi Sankyo Company, Limited, priority 2005, dated 2012).
≈ marks a conversion by molar mass, not a printed value.

How the values were obtained:
hα4 and β1 integrins = target: T1, hα4 and β1 integrins (Homo sapiens, UniProt P05556+P13612); assay: In vitro inhibition of binding between CHO cells expressing hα4 and β1 integrins and Eu3+-hVCAM-1 D1D7-IgG; conditions: for Ki: CHO cells expressing hα4 and β1 integrins, Eu3+-hVCAM-1 D1D7-IgG ligand, without HSA; for IC50: in the presence of 3% human serum albumin (HSA final concentration 3%)
T1 construct: expressed in transfected cells; host or cells: CHO cells
Summary of the method: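 Transfected CHO cells, cultured 2 days, were incubated with compound and Eu³⁺-hVCAM-1 D1D7-IgG (diluted to 2 nM) for 1 h at room temperature. Buffer was 25 mM HEPES pH 7.5 with 1 mM Ca²⁺, 1 mM Mg²⁺, 4 mM Mn²⁺ and 0.1% BSA, ±3% HSA final. Cells were washed at 4 °C and read by DELFIA time-resolved fluorescence; Ki was derived from IC50 using the Scatchard Kd.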

[1] = tested on: eosinophile infiltration in mice actively sensitized with ascaris; assay: Test for eosinophile infiltration in mice actively sensitized with ascaris, administered two times a day; assay type: in vivo; conditions: orally 5 mg/kg two times a day; for inhibition in vivo at 5 mg/kg: Mus musculus, po, eosinophile count in BALF 48 hours after sensitization vs ascaris-sensitized group, read-out: suppression rate (%); for Average total eosinophile count (×10^5) of (ascaris-sensitized + substance under test) group: BALF 48 hours after sensitization
Protocol: Test for eosinophile infiltration in mice actively sensitized with ascaris (antigen to pig roundworm):
It has been reported that infiltration of eosinophilic cells is induced by active sensitization with ascaris {Int. Arch. Immuno., 108, 11-18 (1995)}. An evaluation of the compounds under test was performed according to the evaluation method described herein. The substance under test was orally administered in an amount of 5 mg/kg, two times a day. The total cell count and the eosinophile count in BALF of 48 hours after sensitization were calculated, and the effects were determined by comparing with the group not administered with the substance under test.

[2] = Solubility test in first and second liquid of the Japanese Pharmacopoeia; conditions: Solubility
Protocol: The solubilities of the substance under test in the first liquid (JP1, pH=1.2) of the Japanese Pharmacopoeia and the second liquid (JP2, pH=6.8) of the Japanese Pharmacopoeia, were evaluated.

[3] = first liquid of the Japanese Pharmacopoeia (JP1), pH 1.2, simulated gastric fluid, First liquid of Japanese Pharmacopoeia (μg/mL), JP1, pH=1.2
[4] = second liquid of the Japanese Pharmacopoeia (JP2), pH 6.8, aqueous buffer, Second liquid of Japanese Pharmacopoeia (μg/mL), JP2, pH=6.8

T1 sequence (P13612 34-1032): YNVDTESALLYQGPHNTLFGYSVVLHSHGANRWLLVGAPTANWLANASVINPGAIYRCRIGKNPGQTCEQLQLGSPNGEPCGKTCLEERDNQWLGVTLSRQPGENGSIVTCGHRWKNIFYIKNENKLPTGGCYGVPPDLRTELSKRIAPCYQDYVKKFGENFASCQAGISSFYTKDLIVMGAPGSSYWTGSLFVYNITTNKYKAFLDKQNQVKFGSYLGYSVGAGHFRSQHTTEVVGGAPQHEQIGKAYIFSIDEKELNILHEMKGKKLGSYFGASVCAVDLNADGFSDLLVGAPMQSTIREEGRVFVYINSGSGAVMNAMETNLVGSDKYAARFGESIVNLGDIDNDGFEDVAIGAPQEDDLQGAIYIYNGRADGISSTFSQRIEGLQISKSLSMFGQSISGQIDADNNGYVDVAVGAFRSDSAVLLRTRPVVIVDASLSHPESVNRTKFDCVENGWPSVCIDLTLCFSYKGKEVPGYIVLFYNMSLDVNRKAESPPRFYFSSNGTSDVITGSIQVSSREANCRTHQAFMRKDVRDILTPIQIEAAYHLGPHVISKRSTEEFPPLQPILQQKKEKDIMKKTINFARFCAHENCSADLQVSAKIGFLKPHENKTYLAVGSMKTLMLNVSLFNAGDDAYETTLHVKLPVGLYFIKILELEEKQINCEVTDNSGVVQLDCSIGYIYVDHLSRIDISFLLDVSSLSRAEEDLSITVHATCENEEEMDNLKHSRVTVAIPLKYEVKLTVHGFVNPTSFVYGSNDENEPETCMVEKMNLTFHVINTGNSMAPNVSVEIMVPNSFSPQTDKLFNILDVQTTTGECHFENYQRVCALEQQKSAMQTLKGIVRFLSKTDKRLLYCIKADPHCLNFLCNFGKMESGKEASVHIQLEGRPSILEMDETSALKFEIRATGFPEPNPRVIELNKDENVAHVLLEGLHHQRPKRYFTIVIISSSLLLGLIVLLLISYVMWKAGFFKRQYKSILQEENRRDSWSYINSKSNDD
T1 sequence (P05556 21-798): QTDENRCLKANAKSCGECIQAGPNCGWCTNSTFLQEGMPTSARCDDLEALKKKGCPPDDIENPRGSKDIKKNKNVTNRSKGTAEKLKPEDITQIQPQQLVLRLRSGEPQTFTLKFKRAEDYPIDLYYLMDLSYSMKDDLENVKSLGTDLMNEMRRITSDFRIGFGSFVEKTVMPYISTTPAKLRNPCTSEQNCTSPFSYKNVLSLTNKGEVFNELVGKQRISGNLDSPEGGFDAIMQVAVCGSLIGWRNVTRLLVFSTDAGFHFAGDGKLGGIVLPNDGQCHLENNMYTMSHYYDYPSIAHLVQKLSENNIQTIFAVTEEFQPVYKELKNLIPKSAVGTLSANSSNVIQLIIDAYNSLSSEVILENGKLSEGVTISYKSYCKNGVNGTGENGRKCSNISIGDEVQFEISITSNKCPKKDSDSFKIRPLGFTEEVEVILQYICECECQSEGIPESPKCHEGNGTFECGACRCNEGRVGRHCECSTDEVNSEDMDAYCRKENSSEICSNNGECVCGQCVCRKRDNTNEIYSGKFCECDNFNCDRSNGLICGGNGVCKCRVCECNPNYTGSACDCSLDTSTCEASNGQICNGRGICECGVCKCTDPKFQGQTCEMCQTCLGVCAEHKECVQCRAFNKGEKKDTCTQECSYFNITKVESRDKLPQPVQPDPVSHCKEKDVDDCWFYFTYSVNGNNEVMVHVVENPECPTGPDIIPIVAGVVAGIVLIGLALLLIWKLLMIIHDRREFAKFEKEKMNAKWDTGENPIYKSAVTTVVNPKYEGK

SMILES | Ki (hα4 and β1 integrins) [nM] | IC50 (hα4 and β1 integrins) [nM] | solubility [2, 3] [µg/mL] | solubility [2, 4] [µg/mL] | inhibition in vivo at 5 mg/kg [1] [%] | Average total eosinophile count (×10^5) of (ascaris-sensitized + substance under test) group [1]
O=C(Nc1cc(F)c(CC(=O)N2C[C@@H](N3CCCCC3)C[C@H]2CO[C@H]2CC[C@H](C(=O)O)CC2)cc1Cl)c1csc2ccccc12 [Example 94, Trans-4-[1-[[4-[(benzo[b]thiophen-3-ylcarbonyl)amino]-5-chloro-2-fluorophenyl]acetyl]-(4S)-(piperidin-1-yl)-(2S)-pyrrolidinylmethoxy]cyclohexanecarboxylic acid] | 0.93 | 2.9 | – | – | 59 | 1.24 ×10^5
Cn1cc(C(=O)Nc2cc(F)c(CC(=O)N3C[C@@H](N4CCN(CC(F)(F)F)CC4)C[C@H]3CO[C@H]3CC[C@H](C(=O)O)CC3)cc2Cl)c2ccccc21 [Example 124, Trans-4-[1-[[5-chloro-2-fluoro-4-[(1-methyl-1H-indol-3-ylcarbonyl)amino]phenyl]acetyl]-(4S)-[4-(2,2,2-trifluoroethyl)piperazin-1-yl]-(2S)-pyrrolidinylmethoxy]cyclohexanecarboxylic acid] | 4.9 | 17 | – | – | 63 | 1.72 ×10^5
Cn1cc(C(=O)Nc2cc(Cl)c(CC(=O)N3C[C@@H](N4CC5CC4CN5C4CC4)C[C@H]3CO[C@H]3CC[C@H](C(=O)O)CC3)cc2Cl)c2ccccc21 (stereo partly drawn) [Example 164, Trans-4-[1-[[2,5-dichloro-4-[(1-methyl-1H-indol-3-ylcarbonyl)amino]phenyl]acetyl]-(4S)-[(1S,4S)-2-cyclopropyl-2,5-diazabicyclo[2.2.1]heptan-5-yl]-(2S)-pyrrolidinylmethoxy]cyclohexanecarboxylic acid] | 13 | 71 | 1000 (≈ 1380 µM) | 1000 (≈ 1380 µM) | – | –
Cn1cc(C(=O)Nc2cc(Cl)c(CC(=O)N3C[C@@H](N4CCCOCC4)C[C@H]3CO[C@H]3CC[C@H](C(=O)O)CC3)cc2Cl)c2ccccc21 [Example 165, Trans-4-[1-[[2,5-dichloro-4-[(1-methyl-1H-indol-3-ylcarbonyl)amino]phenyl]acetyl]-(4S)-([1,4]-oxazepan-4-yl)-(2S)-pyrrolidinylmethoxy]cyclohexanecarboxylic acid] | 8.2 | 12 | > 2000 | > 2000 | – | –

Now from value to compound, other results behind:

Ki (hα4 and β1 integrins) [nM] | IC50 (hα4 and β1 integrins) [nM] | solubility [2, 3] [µg/mL] | solubility [2, 4] [µg/mL] | SMILES | inhibition in vivo at 5 mg/kg [1] [%] | Average total eosinophile count (×10^5) of (ascaris-sensitized + substance under test) group [1]
2.8 | 15 | – | – | Cn1cc(C(=O)Nc2cc(F)c(CC(=O)N3C[C@@H](N4C[C@H]5COC[C@H]5C4)C[C@H]3CO[C@H]3CC[C@H](C(=O)O)CC3)cc2Cl)c2ccccc21 [Example 72] | 70 | 1.41 ×10^5
6.5 | 20 | – | – | C[C@@H]1CN([C@H]2C[C@@H](CO[C@H]3CC[C@H](C(=O)O)CC3)N(C(=O)Cc3cc(Cl)c(NC(=O)c4cn(C)c5ccccc45)cc3Cl)C2)C[C@H](C)O1 [Example 80, Trans-4-[1-[[2,5-dichloro-4-[(1-methyl-1H-indol-3-ylcarbonyl)amino]phenyl]acetyl]-(4S)-(cis-2,6-dimethylmorpholin-4-yl)-(2S)-pyrrolidinylmethoxy]cyclohexanecarboxylic acid] | 51 | 1.86 ×10^5
3.2 | 12 | 1400 (≈ 1920 µM) | 1400 (≈ 1920 µM) | C[C@@H]1CN([C@H]2C[C@@H](CO[C@H]3CC[C@H](C(=O)O)CC3)N(C(=O)Cc3cc(Cl)c(NC(=O)c4cn(C)c5ccccc45)cc3F)C2)C[C@H](C)N1CCF [Example 147, Trans-4-[1-[[5-chloro-2-fluoro-4-[(1-methyl-1H-indol-3-ylcarbonyl)amino]phenyl]acetyl]-(4S)-[cis-2,6-dimethyl-1-(2-fluoroethyl)piperazin-4-yl]-(2S)-pyrrolidinylmethoxy]cyclohexanecarboxylic acid] | – | –
